In one series the target is AMPA receptor. Briefly: Binding experiment to AMPA receptor ([3H]-AMPA displacement, crude synaptosome membrane preparations). On the set-up: species or system rats. The settings on record: crude synaptosome membranes from rat cerebral cortex; [3H]-AMPA 5 nM; potassium thiocyanate 100 mM; 30 minutes at 0° C.; Ki converted from IC50. As for the experimental part: Binding Experiment to AMPA Receptor
After the reactions were stopped by suction filtration, the radio activity on the filter was measured with liquid scintillation counter. The specific binding of [^3H]-AMPA was determined by subtracting nonspecific binding level in the presence of glutamic acid (0.1 mM) from overall binding level.

Each structure is given as a SMILES string.

One may read the Ki as a measure of affinity in units of concentration, obtained from inhibition or displacement. A high value points to lower affinity. As a reminder, the melting point is the temperature, or range, at which the solid turns liquid.

On to `O=C(O)c1nc2cc(Cl)c([N+](=O)[O-])cc2[nH]c1=O` [Example 5, 7-Chloro-3,4-dihydro-6-nitro-3-oxoquinoxaline-2-carboxylic Acid], for which the affinity on AMPA receptor, expressed as Ki, was 1260 nM.

On AMPA receptor, `O=C(O)c1nc2cc(F)c([N+](=O)[O-])cc2[nH]c1=O` [Example 6, 3,4-Dihydro-7-fluoro-6-nitro-3-oxoquinoxaline-2-carboxylic Acid] returned a Ki of 2010 nM.

Consider `O=C(O)c1nc2cc(Br)c([N+](=O)[O-])cc2[nH]c1=O` [Example 7, 7-Bromo-3,4-dihydro-6-nitro-3-oxoquinoxaline-2-carboxylic Acid], for which the affinity on AMPA receptor, expressed as Ki, was 630 nM.

On to `Cc1cc2nc(C(=O)O)c(=O)[nH]c2cc1[N+](=O)[O-]` [Example 8, 3,4-Dihydro-7-methyl-6-nitro-3-oxoquinoxaline-2-carboxylic Acid], for which the melting point fell in the range of 239 to 242 °C. The compound also displayed a Ki at AMPA receptor of 330 nM.

The compound `O=C(O)c1nc2cc(N3CCOCC3)c([N+](=O)[O-])cc2[nH]c1=O` [Example 35, 3,4-Dihydro-7-morpholino-6-nitro-3-oxoquinoxaline-2-carboxylic Acid] registered a melting point of 213.5 to 214.5 °C. Besides, the affinity at AMPA receptor corresponds to a Ki of 2040 nM.

Turning to `O=C(O)c1nc2cc(-n3ccnc3)c([N+](=O)[O-])cc2[nH]c1=O` [Example 36, 3,4-Dihydro-7-(imidazole-1-yl)-6-nitro-3-oxoquinoxaline-2-carboxylic Acid], the melting point is over 300 °C. The compound also displayed a Ki on AMPA receptor of 450 nM.

As for `O=C(O)c1nc2cc(-n3ccc(=O)cc3)c([N+](=O)[O-])cc2[nH]c1=O` [Example 37, 3,4-Dihydro-6-nitro-3-oxo-7-(4-pyridone-1-yl)quinoxaline-2-carboxylic Acid], the melting point fell in the range of 283 to 285 °C. The compound also registered a Ki on AMPA receptor of 330 nM.

Take `CN(C)c1cc2nc(C(=O)O)c(=O)[nH]c2cc1[N+](=O)[O-]` [Example 39, 3,4-Dihydro-7-dimethylamino-6-nitro-3-oxoquinoxaline-2-carboxylic Acid]: the affinity on AMPA receptor corresponds to a Ki of 910 nM.

Consider `O=C(O)c1nc2cc(Oc3ccccc3)c([N+](=O)[O-])cc2[nH]c1=O` [Example 62, 3,4-Dihydro-6-nitro-3-oxo-7-phenoxyquinoxaline-2-carboxylic Acid], for which the melting point is 154 to 156 °C (dec.). On AMPA receptor, this compound came in with a Ki of 860 nM.

Regarding `Cl.O=C(O)c1nc2cc(Cn3ccnc3)c([N+](=O)[O-])cc2[nH]c1=O` [Example 66, 3,4-Dihydro-7-(imidazole-1-yl)methyl-6-nitro-3-oxoquinoxaline-2-carboxylic Acid Hydrochloride], the melting point is over 300 °C. The compound further had a Ki on AMPA receptor of 360 nM.

Take `O=C(Nc1ccccc1F)OCc1cn(-c2cc3nc(C(=O)O)c(=O)[nH]c3cc2[N+](=O)[O-])cn1` [Example 96]: the melting point is 251 to 253 °C (dec.). This compound displayed a Ki on AMPA receptor of 28.2 nM.

Consider `O=C(Nc1ccccc1C(F)(F)F)OCc1cn(-c2cc3nc(C(=O)O)c(=O)[nH]c3cc2[N+](=O)[O-])cn1` [Example 101], for which the melting point is 230 to 232 °C (dec.). At AMPA receptor, this compound came in with an inhibition constant Ki of 32.3 nM.

As for `O=C(Nc1ccccc1)OCc1cn(-c2cc3nc(C(=O)O)c(=O)[nH]c3cc2[N+](=O)[O-])ccc1=O` [Example 121, 3,4-Dihydro-6-nitro-3-oxo-7-(3-((N-phenylcarbamoyloxy)methyl)-4-pyridone-1-yl)quinoxaline-2-carboxylic Acid], the melting point is 230 to 232 °C (dec.). Moreover, the Ki on AMPA receptor amounted to 172 nM.

With `O=C(Nc1cccc(Br)c1)OCc1cn(-c2cc3nc(C(=O)O)c(=O)[nH]c3cc2[N+](=O)[O-])ccc1=O` [Example 123], the melting point is 199 to 201 °C (dec.). In addition, on AMPA receptor, the affinity corresponds to a Ki of 48.1 nM.

Compound `Nc1cc2nc(C(=O)O)c(=O)[nH]c2cc1[N+](=O)[O-]` [Example 157, 7-Amino-3,4-dihydro-6-nitro-3-oxoquinoxaline-2-carboxylic Acid] showed a melting point of 300 °C.

With `Cn1c(=O)c(C(=O)O)nc2cc(F)c([N+](=O)[O-])cc21` [Example 162, 3,4-Dihydro-7-fluoro-4-methyl-6-nitro-3-oxoquinoxaline-2-carboxylic Acid], the melting point was in the range of 173 to 175 °C.

`O=C(O)c1nc2cc(C(F)(F)F)c([N+](=O)[O-])cc2[nH]c1=O` [Example 163, 3,4-Dihydro-6-nitro-3-oxo-7-trifluoromethylquinoxaline-2-carboxylic Acid]: the melting point was 213 to 215 °C (dec.).

Turning to `Nc1cc2nc(C(=O)O)c(=O)[nH]c2cc1C(F)(F)F` [Example 164, 7-Amino-3,4-dihydro-3-oxo-6-trifluoromethylquinoxaline-2-carboxylic Acid], the melting point is 218 to 220 °C (dec.).

Regarding `O=C(O)c1nc2cc(-n3ccnc3)c(C(F)(F)F)cc2[nH]c1=O` [Example 168, 3,4-Dihydro-7-imidazolyl-3-oxo-6-trifluoromethylquinoxaline-2-carboxylic Acid], the melting point is 232 to 234 °C (dec.).

In turn, `O=C(O)c1nc2cc(-n3ccc(=O)cc3)c(C(F)(F)F)cc2[nH]c1=O` [Example 169, 3,4-Dihydro-3-oxo-7-(4-pyridone-1-yl)-6-trifluoro-methylquinoxaline-2-carboxylic Acid] showed a melting point of 300 °C.

On to `O=C(NCc1ccn(-c2cc3nc(C(=O)O)c(=O)[nH]c3cc2C(F)(F)F)c1)Nc1ccc(Br)cc1` [Example 185, 7-(3-(((4-Bromophenyl)aminocarbonylamino)methyl)pyrrole-1-yl)-3,4-dihydro-3-oxo-6-trifluoromethylquinoxaline-2-carboxylic Acid], for which the melting point is 196 to 198 °C (dec.).

As for `O=C(NCc1ccn(-c2cc3nc(C(=O)O)c(=O)[nH]c3cc2C(F)(F)F)c1)Nc1cccc(C(=O)O)c1` [Example 187, 7-(3-(((3-Carboxyphenyl)aminocarbonylamino)methyl)pyrrole-1-yl)-3,4-dihydro-3-oxo-6-trifluoromethylquinoxaline-2-carboxylic Acid], the melting point was found to be 300 °C.

`O=C(NCc1ccn(-c2cc3nc(C(=O)O)c(=O)[nH]c3cc2C(F)(F)F)c1)Nc1ccccc1` [Example 188, 3,4-Dihydro-3-oxo-7-(3-((phenylaminocarbonylamino)methyl)pyrrole-1-yl)-6-trifluoromethylquinoxaline-2-carboxylic Acid] returned a melting point of over 300 °C.

With `O=C(Nc1ccccc1)OCc1cn(-c2cc3nc(C(=O)O)c(=O)[nH]c3cc2C(F)(F)F)cn1` [Example 235, 3,4-Dihydro-3-oxo-7-((4-(N-phenylcarbamoyloxy)methyl)imidazole-1-yl)-6-trifluoromethylquinoxaline-2-carboxylic Acid], the melting point was 193 to 195 °C (dec.).

Consider `CCOC(=O)c1ccc(NC(=O)OCc2cn(-c3cc4nc(C(=O)O)c(=O)[nH]c4cc3[N+](=O)[O-])cn2)cc1` [Example 278, 3,4-Dihydro-7-(4-((N-(4-ethoxycarbonylphenyl)carbamoyloxy)methyl)imidazolyl)-6-nitro-3-oxoquinoxaline-2-carboxylic Acid], for which the melting point was 207 to 209 °C (dec.).

As to `O=C(O)Cc1cn(-c2cc3nc(C(=O)O)c(=O)[nH]c3cc2[N+](=O)[O-])cn1` [Example 303, 7-(4-(Carboxymethyl)imidazolyl)-3,4-dihydro-6-nitro-3-oxoquinoxaline-2-carboxylic Acid], the melting point was over 300 °C.

On to `CCOC(=O)c1ccc(NC(=O)OCc2cn(-c3cc4nc(C(=O)O)c(=O)[nH]c4cc3[N+](=O)[O-])ccc2=O)cc1` [Example 306, 7-(3-((N-(4-Ethoxycarbonylphenyl)carbamoyloxy)methyl)-4-pyridone-1-yl)-3,4-dihydro-6-nitro-3-oxoquinoxaline-2-carboxylic Acid], for which the melting point was 201 to 203 °C (dec.).

As for `O=C(Nc1ccc(C(=O)O)cc1)OCc1cn(-c2cc3nc(C(=O)O)c(=O)[nH]c3cc2[N+](=O)[O-])ccc1=O` [Example 307, 7-(3-((N-(4-Carboxyphenyl)carbamoyloxy)methyl)-4-pyridone-1-yl)-3,4-dihydro-6-nitro-3-oxoquinoxaline-2-carboxylic Acid], the melting point is 231 to 233 °C (dec.).

The values are drawn from patent publication US6348461B1, “6,7-asymmetrically disubstituted quinoxalinecarboxylic acid derivatives, addition salts thereof, and processes for the preparation of both” (Kyorin Pharmaceutical Co., Ltd., priority 1997, dated 2002).
